Reference: patent US4435404A, “Carbostyril derivatives” (priority 1980, dated 1984)
Where two headings read alike, the source gives them in different places.

Key:
[1] = test system: collagen-induced aggregation in rabbit platelet; experiment: Inhibition effect on collagen-induced aggregation in rabbit platelet; assay type: cell-based; details: for inhibition at 100 µM / inhibition at 10 µM / inhibition at 1 µM / inhibition at 0.1 µM: Oryctolagus cuniculus, Platelet, read-out: Inhibition effect on collagen-induced aggregation
Description: (§1) The platelet aggregation inhibitory effect is measured by using AG-II aggregometer (manufactured by Bryston Manufacturing Co.). The blood sample used for the test is a 1/9 (by volume) mixture of sodium citrate and whole blood collected from rabbit. Said sample is subjected to 10-minute centrifugal separation at 1,000 r.p.m. to obtain a platelet rich plasma (PRP). The thus obtained PRP is separated, and the remaining blood sample is further subjected to 15-minute centrifugal separation at 3,000 r.p.m. to obtain a platelet poor plasma (PPP).
(§2) The number of platelets in the PRP is counted by the Brecher-Clonkite Method, and the PRP is diluted with the PPP to prepare a PRP sample with platelet concentration of 300,000/mm^3 for the adenosine diphosphate (ADP)-induced aggregation test. There is also prepared a PRP sample with platelet concentration of 450,000/mm^3 for the collagen-induced aggregation test.
(§3) 0.6 Milliliter of said PRP sample is added into 0.01 ml of a solution of a test compound of a predetermined concentration and the mixture is placed in a 37° C. thermostat for one minute. Then 0.07 ml of an ADP or collagen solution is added to the mixture. Transmittance of this mixture is determined and the change of transmittance is recorded by using the aggregometer at stirrer speed of 1,100 r.p.m. […] The ADP solution is adjusted to a concentration of 7.5×10^-5 M, and the collagen solution is prepared by triturating 100 mg of collagen with 5 ml of said buffer and the supernatant is used as collagen inducer. Acetylsalicylic acid is used as control for the ADP-induced aggregation test and the collagen-induced aggregation test, respectively. The platelet aggregation inhibitory effect is measured in terms of percent inhibition with respect to the aggregation rate of the controls. The aggregation rate is calculated from the following formula:
(§4) Aggregation rate=[(c-a)/(b-a)]×100
(§5) b: transmittance of PRP containing a test compound and an aggregation inducer

[2] = test system: ADP-induced aggregation in rabbit platelet; experiment: Inhibition effect on ADP-induced aggregation in rabbit platelet; assay type: cell-based; details: for inhibition at 100 µM / inhibition at 10 µM / inhibition at 1 µM / inhibition at 0.1 µM: Oryctolagus cuniculus, Platelet; for inhibition at 10 µM / inhibition at 1 µM / inhibition at 0.1 µM: read-out: Inhibition effect on ADP-induced aggregation; for inhibition at 0.1 µM: concentration of the test compound solution 10^-7 mole
Description: as §1, §2, §3, §4, §5

[3] = Acute Toxicity Test; details: mouse, in vivo; male mice, oral administration
Description: The test compounds were administered orally to the mice and LD50 (mg/kg) of the compounds was determined.

[4] = concentration of the test compound solution 10^-4 mole
[5] = concentration of the test compound solution 10^-5 mole
[6] = concentration of the test compound solution 10^-6 mole
[7] = concentration of the test compound solution 10^-7 mole

## CN(Cc1cccs1)C(=O)CCCOc1ccc2[nH]c(=O)ccc2c1 [No. 5, 6-{3-[N-Methyl-N-(2-thienylmethyl)aminocarbonyl]propoxy}carbostyril]
[1]; [4]
  inhibition at 100 µM: 85.7%
[1]; [5]
  inhibition at 10 µM: 30.7%
[2]; [4]
  inhibition at 100 µM: 100%
[2]; [5]
  inhibition at 10 µM: 54.7%
[2]; [6]
  inhibition at 1 µM: 7.1%
[3]
  LD50: > 1000 mg/kg

## CCC(O)CN(CC1CCCCC1)C(=O)CCCCOc1ccc2c(c1)CCC(=O)N2 (centres unmarked) [No. 7, 6-{4-[N-(2-Hydroxybutyl)-N-cyclohexylmethylaminocarbonyl]butoxy}-3,4-dihydrocarbostyril]
[1]; [5]
  inhibition at 10 µM: 100%
[1]; [6]
  inhibition at 1 µM: 13.3%
[2]; [4]
  inhibition at 100 µM: 100%
[2]; [5]
  inhibition at 10 µM: 64.3%
[2]; [6]
  inhibition at 1 µM: 18.6%
[3]
  LD50: > 1000 mg/kg

## O=C1CCc2cc(OCCCCC(=O)N(CCCCO)CC3CCCCC3)ccc2N1 [No. 8, 6-{4-[N-(4-Hydroxybutyl)-N-cyclohexylmethylaminocarbonyl]butoxy}-3,4-dihydrocarbostyril]
[1]; [5]
  inhibition at 10 µM: 100%
[1]; [6]
  inhibition at 1 µM: 10.2%
[2]; [4]
  inhibition at 100 µM: 100%
[2]; [5]
  inhibition at 10 µM: 72.1%
[2]; [6]
  inhibition at 1 µM: 12.2%
[3]
  LD50: > 1000 mg/kg

## CCC(O)CN(C(=O)CCCCOc1ccc2[nH]c(=O)ccc2c1)C1CCCCCCC1 (centres unmarked) [No. 9, 6-{4-[N-(2-Hydroxybutyl)-N-cyclooctylaminocarbonyl]butoxy}carbostyril]
[1]; [5]
  inhibition at 10 µM: 100%
[1]; [6]
  inhibition at 1 µM: 100%
[1]; [7]
  inhibition at 0.1 µM: 43.2%
[2]; [4]
  inhibition at 100 µM: 100%
[2]; [5]
  inhibition at 10 µM: 84.9%
[2]; [6]
  inhibition at 1 µM: 40.1%
[2]
  inhibition at 0.1 µM: 5.6%
[3]
  LD50: > 1000 mg/kg

## O=C1CCc2cc(OCCCCC(=O)N(CCO)c3ccccc3)ccc2N1 [No. 11, 6-{4-[N-(2-Hydroxyethyl)-N-phenylaminocarbonyl]butoxy}-3,4-dihydrocarbostyril]
[1]; [5]
  inhibition at 10 µM: 100%
[1]; [6]
  inhibition at 1 µM: 33.9%
[2]; [4]
  inhibition at 100 µM: 100%
[2]; [5]
  inhibition at 10 µM: 49.5%
[2]; [6]
  inhibition at 1 µM: 22.4%
[3]
  LD50: > 1000 mg/kg

## O=C1CCc2cc(OCCCCC(=O)N(CCO)CC3CCCCO3)ccc2N1 (centres unmarked) [No. 13, 6-{4-[N-(2-Hydroxyethyl)-N-(2-tetrahydropyranylmethyl)aminocarbonyl]butoxy}-3,4-dihydrocarbostyril]
[1]; [5]
  inhibition at 10 µM: 81.7%
[1]; [6]
  inhibition at 1 µM: 5.2%
[2]; [4]
  inhibition at 100 µM: 100%
[2]; [5]
  inhibition at 10 µM: 30.1%
[2]; [6]
  inhibition at 1 µM: 5.3%
[3]
  LD50: > 1000 mg/kg

## O=C(CCCOc1ccc2[nH]c(=O)ccc2c1)N1CCC(c2ccccc2)CC1 [No. 16, 6-[3-(4-Phenyl-1-piperidylcarbonyl)propoxy]carbostyril]
[1]; [5]
  inhibition at 10 µM: 40.8%
[1]; [6]
  inhibition at 1 µM: 7.7%
[2]; [4]
  inhibition at 100 µM: 100%
[2]; [5]
  inhibition at 10 µM: 27.9%
[2]; [6]
  inhibition at 1 µM: 4.9%
[3]
  LD50: > 1000 mg/kg

## O=C1CCc2cc(OCCCC(=O)N3CCN(c4ccccc4)CC3)ccc2N1 [No. 17, 6-[3-(4-Phenyl-1-piperazinylcarbonyl)propoxy]-3,4-dihydrocarbostyril]
[1]; [5]
  inhibition at 10 µM: 37.8%
[1]; [6]
  inhibition at 1 µM: 3.4%
[2]; [4]
  inhibition at 100 µM: 100%
[2]; [5]
  inhibition at 10 µM: 25.1%
[2]; [6]
  inhibition at 1 µM: 4.3%
[3]
  LD50: > 1000 mg/kg

## O=C1CCc2cc(OCCCC(=O)N3CCN(C4CCCCC4)CC3)ccc2N1 [No. 18, 6-[3-(4-Cyclohexyl-1-piperazinylcarbonyl)propoxy]-3,4-dihydrocarbostyril]
[1]; [5]
  inhibition at 10 µM: 45.6%
[1]; [6]
  inhibition at 1 µM: 15.2%
[2]; [4]
  inhibition at 100 µM: 100%
[2]; [5]
  inhibition at 10 µM: 42.1%
[2]; [6]
  inhibition at 1 µM: 7%
[3]
  LD50: > 1000 mg/kg

## O=C(CCCOc1ccc2[nH]c(=O)ccc2c1)N(CCO)C1CCCC(O)C1 (centres unmarked) [No. 19, 6-{3-[N-(2-Hydroxyethyl)-N-(3-hydroxycyclohexyl)aminocarbonyl]propoxy}carbostyril]
[1]; [5]
  inhibition at 10 µM: 95.3%
[1]; [6]
  inhibition at 1 µM: 47.5%
[2]; [4]
  inhibition at 100 µM: 100%
[2]; [5]
  inhibition at 10 µM: 63.2%
[2]; [6]
  inhibition at 1 µM: 12%
[3]
  LD50: > 1000 mg/kg

## COc1ccc(CCN(CCO)C(=O)CCCCOc2ccc3[nH]c(=O)ccc3c2)cc1OC [No. 20, 6-{4-[N-(2-Hydroxyethyl)-N-(β-3,4-dimethoxyphenethyl)aminocarbonyl]butoxy}carbostyril]
[1]; [5]
  inhibition at 10 µM: 82.6%
[1]; [6]
  inhibition at 1 µM: 29.2%
[2]; [4]
  inhibition at 100 µM: 100%
[2]; [5]
  inhibition at 10 µM: 73.2%
[2]; [6]
  inhibition at 1 µM: 28.8%
[3]
  LD50: > 1000 mg/kg

## CC(=O)OCCCN(CC1CCCCO1)C(=O)CCCCOc1ccc2c(c1)CCC(=O)N2 (centres unmarked) [No. 21, 6-{4-[N-(3-Acetyloxypropyl)-N-(2-tetrahydropyranylmethyl)aminocarbonyl]butoxy}-3,4-dihydrocarbostyril]
[1]; [5]
  inhibition at 10 µM: 82.9%
[1]; [6]
  inhibition at 1 µM: 34.2%
[2]; [4]
  inhibition at 100 µM: 100%
[2]; [5]
  inhibition at 10 µM: 60.6%
[2]; [6]
  inhibition at 1 µM: 18.6%
[3]
  LD50: > 1000 mg/kg

## O=C1CCc2cc(OCCCCC(=O)N(CCO)Cc3ccccc3)ccc2N1 [No. 22, 6-{4-[N-(2-Hydroxyethyl)-N-benzylaminocarbonyl]butoxy}-3,4-dihydrocarbostyril]
[1]; [5]
  inhibition at 10 µM: 49.2%
[1]; [6]
  inhibition at 1 µM: 16.1%
[2]; [4]
  inhibition at 100 µM: 100%
[2]; [5]
  inhibition at 10 µM: 63.2%
[2]; [6]
  inhibition at 1 µM: 28.8%
[3]
  LD50: > 1000 mg/kg

## COCCN(C(=O)CCCCOc1ccc2[nH]c(=O)ccc2c1)C1CCCCC1 [No. 23, 6-{4-[N-(2-Methoxyethyl)-N-cyclohexylaminocarbonyl]butoxy}carbostyril]
[1]; [5]
  inhibition at 10 µM: 100%
[1]; [6]
  inhibition at 1 µM: 90.5%
[1]; [7]
  inhibition at 0.1 µM: 67%
[2]; [4]
  inhibition at 100 µM: 100%
[2]; [5]
  inhibition at 10 µM: 100%
[2]; [6]
  inhibition at 1 µM: 91.9%
[2]
  inhibition at 0.1 µM: 40.4%
[3]
  LD50: > 1000 mg/kg

## O=C1CCc2cc(OCCCC(=O)N(C3CCCCC3)C3CCCCC3Cl)ccc2N1 (centres unmarked) [No. 30, 6-{3-[N--Cyclohexyl-N--(2-chlorocyclohexyl)-aminocarbonyl]propoxy}-3,4-dihydrocarbostyril, reference compound]
[1]; [4]
  Inhibition effect on collagen-induced aggregation: 91.5%
[1]; [5]
  Inhibition effect on collagen-induced aggregation: 89.9%
[1]; [6]
  Inhibition effect on collagen-induced aggregation: 50.3%
[2]; [4]
  Inhibition effect on ADP-induced aggregation: 89.8%
[2]; [5]
  Inhibition effect on ADP-induced aggregation: 82.9%
[2]; [6]
  Inhibition effect on ADP-induced aggregation: 38.4%

## O=C1CCc2cc(OCCCC(=O)Nc3c(Cl)cccc3Cl)ccc2N1 [No. 44, 6-[3-(o,o-Dichloroanilinocarbonyl)propoxy]-3,4-dihydrocarbostyril, reference compound]
[1]; [4]
  inhibition at 100 µM: 95.1%
[1]; [5]
  inhibition at 10 µM: 27.6%
[2]; [4]
  inhibition at 100 µM: 36.8%
[2]; [5]
  inhibition at 10 µM: 5.3%

## CC(C)NC(=O)CCOc1ccc2c(c1)CCC(=O)N2 [No. 64, 6-(N--Isopropylaminocarbonylethoxy)-3,4-dihydrocarbostyril, reference compound]
[1]; [4]
  Inhibition effect on collagen-induced aggregation: 17%
[1]; [6]
  Inhibition effect on collagen-induced aggregation: 0%
[1]; [7]
  Inhibition effect on collagen-induced aggregation: 0%
[2]; [4]
  Inhibition effect on ADP-induced aggregation: 18%
[2]; [5]
  Inhibition effect on ADP-induced aggregation: 13%
[2]; [6]
  Inhibition effect on ADP-induced aggregation: 7%

## O=C1CCc2cc(OCC(=O)N3CCOCC3)ccc2N1 [No. 65, 6-(Morpholinocarbonylmethoxy)-3,4-dihydrocarbostyril, reference compound]
[1]; [4]
  inhibition at 100 µM: 5%
[1]; [5]
  inhibition at 10 µM: 0%
[1]; [6]
  inhibition at 1 µM: 0%
[2]; [4]
  inhibition at 100 µM: 13%
[2]; [5]
  inhibition at 10 µM: 6%
[2]; [6]
  inhibition at 1 µM: 0%

## CC(=O)Oc1ccccc1C(=O)O [No. 69, Aspirin, reference compound]
[1]
  inhibition at 1 µM: 7%
  inhibition at 10 µM: 9%
  inhibition at 100 µM: 65%
